Here are results for 13 molecules from PubChem BioAssay AID248 (DTP/NCI, 2004).

In the experiment the test system is L1210 leukemia ip in BDF1 mice, survival T/C. In words: NCI In Vivo Anticancer Drug Screen. Data for tumor model L1210 Leukemia (intraperitoneal) in B6D2F1 (BDF1) mice. Particulars: endpoint: mean survival time, higher = longer survival. Put shortly:
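Each compound was tested against a transplantable tumor grown in mice. The endpoint was survival, with treated animals benchmarked against vehicle controls as a simple ratio.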

Setting [1] is: dose: 100.0 mg/kg/injection, schedule: Q04DX003 (ip), vehicle: saline with Tween-80.
[2] abbreviates: dose: 200.0 mg/kg/injection, schedule: Q04DX003 (ip), vehicle: saline with Tween-80.
The mark [3] stands for this setting: dose: 400.0 mg/kg/injection, schedule: Q04DX003 (ip), vehicle: saline with Tween-80.

“And” between values parts separate entries of the source, which are not always exact repeats. Equal values may be shown once. Inconclusive results and toxic doses are left out.

Regarding `COc1ccc(CC(N)C(=O)O)cc1N(CCCl)CCCl` (configuration not stated), the T/C is 116 % of control (dose: 0.07 mg/kg/injection, schedule: Q01DX009 (ip), vehicle: carboxymethylcellulose (CMC)); 117 % of control (dose: 0.08 mg/kg/injection, schedule: Q01DX009 (ip), vehicle: carboxymethylcellulose (CMC)); 110 % of control (dose: 0.4 mg/kg/injection, schedule: Q01DX009 (ip), vehicle: carboxymethylcellulose (CMC)); 111 % of control and 108 % of control (dose: 0.6 mg/kg/injection, schedule: Q01DX001 (ip), vehicle: carboxymethylcellulose (CMC)); 120 % of control and 106 % of control (dose: 1.2 mg/kg/injection, schedule: Q01DX001 (ip), vehicle: carboxymethylcellulose (CMC)); 150 % of control (dose: 1.2 mg/kg/injection, schedule: Q01DX009 (ip), vehicle: carboxymethylcellulose (CMC)). The T/C was 151 % of control (dose: 1.5 mg/kg/injection, schedule: Q01DX009 (ip), vehicle: carboxymethylcellulose (CMC)); 166 % of control (dose: 2.0 mg/kg/injection, schedule: Q01DX009 (ip), vehicle: carboxymethylcellulose (CMC)); 121 % of control and 110 % of control (dose: 2.5 mg/kg/injection, schedule: Q01DX001 (ip), vehicle: carboxymethylcellulose (CMC)); 227 % of control (dose: 2.5 mg/kg/injection, schedule: Q01DX009 (ip), vehicle: carboxymethylcellulose (CMC)); 183 % of control (dose: 3.0 mg/kg/injection, schedule: Q01DX009 (ip), vehicle: carboxymethylcellulose (CMC)); 180 % of control and 213 % of control (dose: 4.5 mg/kg/injection, schedule: Q01DX009 (ip), vehicle: carboxymethylcellulose (CMC)). In addition, the T/C is, setting by setting: (dose: 5.0 mg/kg/injection, schedule: Q01DX001 (ip), vehicle: carboxymethylcellulose (CMC)) 123 % of control; (dose: 5.0 mg/kg/injection, schedule: Q01DX009 (ip), vehicle: carboxymethylcellulose (CMC)) 92 % of control; (dose: 5.5 mg/kg/injection, schedule: Q01DX001 (ip), vehicle: carboxymethylcellulose (CMC)) 151 % of control and 152 % of control; (dose: 6.0 mg/kg/injection, schedule: Q01DX009 (ip), vehicle: carboxymethylcellulose (CMC)) 98 % of control; (dose: 7.0 mg/kg/injection, schedule: Q01DX009 (ip), vehicle: carboxymethylcellulose (CMC)) 116 % of control; (dose: 11.0 mg/kg/injection, schedule: Q01DX001 (ip), vehicle: carboxymethylcellulose (CMC)) 206 % of control. The T/C by setting is: (dose: 12.0 mg/kg/injection, schedule: Q01DX009 (ip), vehicle: carboxymethylcellulose (CMC)) 93 % of control; (dose: 16.5 mg/kg/injection, schedule: Q01DX001 (ip), vehicle: carboxymethylcellulose (CMC)) 173 % of control; (dose: 25.0 mg/kg/injection, schedule: Q01DX001 (ip), vehicle: carboxymethylcellulose (CMC)) 217 % of control.

With `BrCCN1CCCCC1`, the T/C runs as follows: (dose: 1.56 mg/kg/injection, schedule: Q01DX009 (ip), vehicle: saline) 104 % of control and 115 % of control; (dose: 3.13 mg/kg/injection, schedule: Q01DX009 (ip), vehicle: saline) 104 % of control and 112 % of control; (dose: 6.25 mg/kg/injection, schedule: Q01DX009 (ip), vehicle: saline) 101 % of control and 102 % of control; (dose: 12.5 mg/kg/injection, schedule: Q01DX001 (ip), vehicle: saline) 108 % of control; (dose: 12.5 mg/kg/injection, schedule: Q04DX002 (ip), vehicle: saline) 98 % of control and 106 % of control; (dose: 12.5 mg/kg/injection, schedule: Q04DX003 (ip), vehicle: saline) 91 % of control. The T/C is 105 % of control (dose: 25.0 mg/kg/injection, schedule: Q01DX001 (ip), vehicle: saline); 106 % of control (dose: 25.0 mg/kg/injection, schedule: Q04DX002 (ip), vehicle: saline); 96 % of control (dose: 25.0 mg/kg/injection, schedule: Q04DX003 (ip), vehicle: saline); 104 % of control (dose: 50.0 mg/kg/injection, schedule: Q04DX002 (ip), vehicle: saline).

With `Cc1cccc(C(=O)CC(O)(C(F)(F)F)C(F)(F)F)n1`, the T/C by setting is: under setting [1], 92 % of control; under setting [2], 86 % of control; under setting [3], 90 % of control.

Consider `O=Nn1c2ccccc2c2ccccc21`, for which the T/C (dose: 100.0 mg/kg/injection, schedule: Q04DX003 (ip), vehicle: gum acacia) was 92 % of control; the T/C (dose: 200.0 mg/kg/injection, schedule: Q04DX003 (ip), vehicle: gum acacia) was 95 % of control; the T/C (dose: 400.0 mg/kg/injection, schedule: Q04DX003 (ip), vehicle: gum acacia) is 87 % of control.

Turning to `CC12CCC(/C(=C/N(O)/C=C3\C(=O)C4(C)CCC3C4(C)C)C1=O)C2(C)C`, the T/C (dose: 75.0 mg/kg/injection, schedule: Q01DX001 (ip), vehicle: saline) was 96 % of control; the T/C (dose: 150.0 mg/kg/injection, schedule: Q01DX001 (ip), vehicle: saline) was 91 % of control; the T/C (dose: 300.0 mg/kg/injection, schedule: Q01DX001 (ip), vehicle: saline) was 94 % of control.

Consider `CC(C)(C)SCCO`, for which the T/C runs as follows: (dose: 100.0 mg/kg/injection, schedule: Q04DX002 (ip), vehicle: saline) 105 % of control; (dose: 200.0 mg/kg/injection, schedule: Q04DX002 (ip), vehicle: saline) 99 % of control; (dose: 400.0 mg/kg/injection, schedule: Q04DX002 (ip), vehicle: saline) 96 % of control.

Regarding `O=C(Nc1ccc(Cl)cc1)Oc1c(Cl)cc(S(=O)(=O)F)cc1Cl`, the T/C was 94 % of control (dose: 25.0 mg/kg/injection, schedule: Q04DX002 (ip), vehicle: Klucel (hydroxypropylcellulose) (HPC)); 97 % of control (dose: 50.0 mg/kg/injection, schedule: Q01DX009 (ip), vehicle: Klucel (hydroxypropylcellulose) (HPC)); 91 % of control (dose: 50.0 mg/kg/injection, schedule: Q04DX002 (ip), vehicle: Klucel (hydroxypropylcellulose) (HPC)); 97 % of control (dose: 100.0 mg/kg/injection, schedule: Q01DX009 (ip), vehicle: Klucel (hydroxypropylcellulose) (HPC)); 99 % of control and 91 % of control (dose: 100.0 mg/kg/injection, schedule: Q04DX002 (ip), vehicle: Klucel (hydroxypropylcellulose) (HPC)).

On to `NC1=NCN(c2ccc(Oc3ccc(S(=O)(=O)F)cc3)cc2)C(N)=N1`, for which the T/C reads like this: (dose: 100.0 mg/kg/injection, schedule: Q01DX001 (ip), vehicle: Klucel (hydroxypropylcellulose) (HPC)) 93 % of control; (dose: 200.0 mg/kg/injection, schedule: Q01DX001 (ip), vehicle: Klucel (hydroxypropylcellulose) (HPC)) 101 % of control; (dose: 400.0 mg/kg/injection, schedule: Q01DX001 (ip), vehicle: Klucel (hydroxypropylcellulose) (HPC)) 104 % of control.

`COC(=O)N1c2ccccc2C=C(NC(C)=O)C1C#N` (configuration not stated): the T/C was 117 % of control (dose: 100.0 mg/kg/injection, schedule: Q01DX009 (ip), vehicle: saline with Tween-80); 103 % of control under setting [1]; 98 % of control (dose: 200.0 mg/kg/injection, schedule: Q01DX009 (ip), vehicle: saline with Tween-80); 95 % of control under setting [2]; 98 % of control (dose: 400.0 mg/kg/injection, schedule: Q01DX009 (ip), vehicle: saline with Tween-80); 94 % of control under setting [3].

Regarding `CCc1nnc2cc(C)ccn12`, the T/C reads like this: (dose: 100.0 mg/kg/injection, schedule: Q01DX001 (ip), vehicle: other) 98 % of control; (dose: 100.0 mg/kg/injection, schedule: Q04DX003 (ip), vehicle: other) 98 % of control; (dose: 200.0 mg/kg/injection, schedule: Q01DX001 (ip), vehicle: other) 107 % of control; (dose: 200.0 mg/kg/injection, schedule: Q04DX003 (ip), vehicle: other) 98 % of control; (dose: 400.0 mg/kg/injection, schedule: Q01DX001 (ip), vehicle: other) 107 % of control.

With `Fc1cc(F)c(F)c(Nc2c(F)c(F)c(Br)c(F)c2F)c1F`, the T/C was 92 % of control (dose: 25.6 mg/kg/injection, schedule: Q04DX002 (ip), vehicle: saline with Tween-80); 103 % of control (dose: 64.0 mg/kg/injection, schedule: Q04DX002 (ip), vehicle: saline with Tween-80); 92 % of control (dose: 160.0 mg/kg/injection, schedule: Q04DX002 (ip), vehicle: saline with Tween-80); 95 % of control (dose: 400.0 mg/kg/injection, schedule: Q04DX002 (ip), vehicle: saline with Tween-80).

As to `Cc1ccc(CNC(=O)NCCCCCCNC(=O)NCc2ccc(C)cc2)cc1`, the T/C was 95 % of control (dose: 100.0 mg/kg/injection, schedule: Q01DX009 (ip), vehicle: other); 100 % of control (dose: 200.0 mg/kg/injection, schedule: Q01DX009 (ip), vehicle: other); 100 % of control (dose: 400.0 mg/kg/injection, schedule: Q01DX009 (ip), vehicle: other).

In the case of `CCOC(=O)/C(C#N)=C(\C)c1cccc(C)c1`, the T/C is, setting by setting: (dose: 25.0 mg/kg/injection, schedule: Q04DX003 (ip), vehicle: saline with Tween-80) 94 % of control; (dose: 50.0 mg/kg/injection, schedule: Q04DX003 (ip), vehicle: saline with Tween-80) 94 % of control; under setting [1], 102 % of control.
